# Test results from US11951171B2, “Polypeptide EXP and its drug delivery system as well as extracellular vesicle extraction” (TIANJIN MEDICAL UNIVERSITY, priority 2019, dated 2024).
# Test system: exosome from differentiated muscle cells C2C12(dC2C12)
# Experiment: Flow cytometry binding of FAM-labeled peptides to exosome
# Parameters: species or system murine
# Experimental: The FAM-labeled peptides EXP, CP05, 39880, 39881 were respectively co-incubated with exosome from differentiated muscle cells C2C12(dC2C12), and the binding efficiency of different polypeptides with exosome was detected by flow cytometry.
# Each sign in the figure represents the detection results of the following sequences: EXO represents exosomes derived from murine myotubes; CP05 represents the polypeptide which is recorded in the prior art Chinese patent No. CN201510520565.7; EXP represents the polypeptide of the present invention (SEQ ID NO.1). 39880 and 399881 respectively represent two other variants of CP05. (A) Flow cytometry to detected the binding efficiency of different peptides with exosomes. […] (B) Flow cytometry to detected the capacity to enter cells of different peptides mediated by exosome. The equivalent amount FAM-labeled polypeptides were incubated with exosome derived from dC2C12 and added into C2C12 cells, and the capacity of enter cells was detected 24 hours later. It's shown by the results that 65.6% of EXO-EXP entered cells whose capacity is highest. (C) Quantitative analysis of different peptides entering cells mediated by exosome. […] (D) the binding efficiency of different amount gradients of CP05 and EXP to the equivalent amount of exosomes was detected by Flow cytometry to. Different amounts of EXP and CP05(0.03 μg, […], 0.3 μg) were co-incubated with exosomes (10 μg), and their binding efficiency was compared by flow cytometry.
# 1.1 Flow cytometry is used to detect the binding capacity of EXP and other peptides to exosome. • (1) FAM-labeled CP05 and other peptides respectively with amount of […] were mixed with exosome from different source like dC2C12, CDC and serum respectively with amount of […], and DPBS is used to make up a deficiency to 200 μl in volume with. • (2) The mixture prepared as described in (1) was incubated at 4° C. for 2-4 hrs under rotation in vertical shaker. • (3) the binding efficiency was detected with flow cytometry.
sequence,measurement,setting,value
CRHKMWTVKSRL (EXP),"binding efficiency with exosome under different amount gradients, compared with CP05","0.03 μg, 0.06 g, 0.3 μg peptide co-incubated with exosomes (10 μg), FIG. 1D",all higher than that of CP05
same,binding efficiency to exosomes,"FAM-labeled peptide co-incubated with exosome from dC2C12, flow cytometry (FIG. 1A)",up to 95.5%
same,binding efficiency of EXP with exosomes compared to CP05,under the same conditions,about 2 times
